The record followed here is US10526327B2, “Histone demethylase inhibitors” (CELGENE QUANTICEL RESEARCH, INC., priority 2013, dated 2020).

SMILES strings stand for the structures.

The target in this assay is T1, Jarid1A (Homo sapiens, UniProt P29375).
T1 construct: purchased BPS Bioscience 50110
T1 sequence (P29375 1-1090): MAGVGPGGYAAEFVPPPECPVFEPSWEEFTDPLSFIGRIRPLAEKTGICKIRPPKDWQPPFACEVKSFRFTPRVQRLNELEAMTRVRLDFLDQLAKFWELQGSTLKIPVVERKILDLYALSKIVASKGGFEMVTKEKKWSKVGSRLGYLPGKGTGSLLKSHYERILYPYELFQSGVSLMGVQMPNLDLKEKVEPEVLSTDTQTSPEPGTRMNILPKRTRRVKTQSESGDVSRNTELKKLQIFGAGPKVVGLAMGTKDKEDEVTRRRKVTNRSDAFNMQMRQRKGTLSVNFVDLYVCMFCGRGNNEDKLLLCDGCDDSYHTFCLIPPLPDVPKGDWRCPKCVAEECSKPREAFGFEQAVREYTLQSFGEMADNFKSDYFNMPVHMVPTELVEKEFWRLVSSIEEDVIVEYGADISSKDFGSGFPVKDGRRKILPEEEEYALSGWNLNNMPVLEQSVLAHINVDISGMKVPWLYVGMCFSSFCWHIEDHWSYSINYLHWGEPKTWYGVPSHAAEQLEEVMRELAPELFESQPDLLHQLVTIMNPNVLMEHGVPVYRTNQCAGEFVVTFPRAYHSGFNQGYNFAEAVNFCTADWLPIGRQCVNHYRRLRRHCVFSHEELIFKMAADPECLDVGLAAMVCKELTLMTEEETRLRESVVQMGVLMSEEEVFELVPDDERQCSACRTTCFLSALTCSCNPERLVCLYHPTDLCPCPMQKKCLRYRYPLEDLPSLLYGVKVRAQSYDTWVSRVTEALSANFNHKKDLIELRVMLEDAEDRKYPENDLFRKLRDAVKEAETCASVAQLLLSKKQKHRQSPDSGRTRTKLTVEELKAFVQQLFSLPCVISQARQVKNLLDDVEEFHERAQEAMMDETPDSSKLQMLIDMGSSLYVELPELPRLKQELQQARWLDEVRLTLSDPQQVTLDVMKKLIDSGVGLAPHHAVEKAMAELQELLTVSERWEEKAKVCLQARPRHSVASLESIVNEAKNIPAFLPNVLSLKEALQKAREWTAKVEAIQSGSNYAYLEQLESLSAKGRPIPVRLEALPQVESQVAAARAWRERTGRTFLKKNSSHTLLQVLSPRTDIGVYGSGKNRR
Description: Jarid1A in vitro enzyme inhibition assay (TR-FRET). The class given is biochemical. The text has this:
This assay determines the ability of a test compound to inhibit Jarid1A, Jarid1B, and JMJD2C demethylase activity. Baculovirus expressed Jarid1A (GenBank Accession #NM_001042603, AA1-1090) was purchased from BPS Bioscience (Cat#50110). Baculovirus expressed Jarid1B (GenBank Accession #NM_006618, AA 2-751) was purchased from BPS Bioscience (Cat #50121) or custom made by MolecularThroughput. Baculovirus expressed JMJD2C (GenBank Accession #BC143571, AA 2-372) was purchased from BPS Bioscience (Cat#50105).
The enzymatic assay of Jarid1A activity is based upon Time Resolved-Fluorescence Resonance Energy Transfer (TR-FRET) detection. The ability of test compounds to inhibit the activity of Jarid1A was determined in 384-well plate format under the following reaction conditions: 1 nM Jarid1A, 300 nM H3K4me3-biotin labeled peptide (Anaspec cat #64357), 2 μM alpha-ketoglutaric acid in assay buffer of 50 mM HEPES, pH7.3, 0.005% Brij35, 0.5 mM TCEP, 0.2 mg/ml BSA, 50 μM sodium L-ascorbate, and 2 μM ammonium iron(II) sulfate. Reaction product was determined quantitatively by TR-FRET after the addition of detection reagent Phycolink Streptavidin-allophycocyanin (Prozyme) and Europium-anti-mono-or di-methylated histone H3 lysine 4 (H3K4me1-2) antibody (PerkinElmer) in the presence of 5 mM EDTA in LANCE detection buffer (PerkinElmer) at a final concentration of 25 nM and 1 nM, respectively.
The assay reaction was initiated by the following: 2 μl of the mixture of 900 nM H3K4me3-biotin labeled peptide and 6 μM alpha-ketoglutaric acid with 2 μl of 11-point serial diluted inhibitor in 3% DMSO was added to each well of plate, followed by the addition of 2 μl of 3 nM Jarid1A to initiate the reaction. The reaction mixture was incubated at room temperature for 30 minutes, and terminated by the addition of 6 μl of 5 mM EDTA in LANCE detection buffer containing 50 nM Phycolink Streptavidin-allophycocyanin and 2 nM Europium-anti-H3K4me1-2 antibody. Plates were read by EnVisionMultilabel Reader in TR-FRET mode (excitation at 320 nm, emission at 615 nm and 665 nm) after 1 hour incubation at room temperature. A ratio was calculated (665/615) for each well and fitted to determine inhibition constant (IC50).
A general note: Time-resolved FRET reads energy transfer from a long-lived donor to a nearby acceptor.
For orientation: IC50 means the concentration at which inhibition is half-maximal. A lower IC50 goes with inhibition by little substance. `O=C(C1CC1)N1CCC(n2cc(Oc3nc(O)c4ccncc4n3)cn2)CC1` [Example 92, cyclopropyl-[4-[4-(4-hydroxypyrido[3,4-d]pyrimidin-2-yl)oxypyrazol-1-yl]piperidin-1-yl]methanone]: the IC50 was at most 100 nM.

The compound `CCn1ncc2ccc(Oc3nc(O)c4ccnc(-c5cn(C)cn5)c4n3)cc21` [Example 84, 2-(1-ethylindazol-6-yl)oxy-8-(1-methylimidazol-4-yl)pyrido[3,4-d]pyrimidin-4-ol] displayed a concentration for half-maximal inhibition (IC50) of at most 100 nM.

`CC(=O)N1CCC(n2cc(Oc3nc(O)c4ccncc4n3)cn2)CC1` [Example 90, 1-[4-[4-(4-hydroxypyrido[3,4-d]pyrimidin-2-yl)oxypyrazol-1-yl]piperidin-1-yl]ethanone]: the concentration for half-maximal inhibition (IC50) was at most 100 nM.

In the case of `OCCOc1nc(O)c2ccncc2n1` [Example 3, 2-(2-hydroxyethoxy)pyrido[3,4-d]pyrimidin-4-ol], the IC50 was at most 100 nM.

Take `Cn1cnc(-c2nccc3c(O)nc(Oc4ccc5cnn(C)c5c4)nc23)c1` [Example 83, 8-(1-methylimidazol-4-yl)-2-(1-methylindazol-6-yl)oxypyrido[3,4-d]pyrimidin-4-ol]: the half-inhibitory concentration (IC50) is at most 100 nM.

Compound `CC(C)c1cccc(Oc2nc(O)c3ccncc3n2)c1` [Example 39, 2-(3-propan-2-ylphenoxy)pyrido[3,4-d]pyrimidin-4-ol] showed an IC50 of at most 100 nM.

Take `Oc1nc(Oc2cccc(F)c2)nc2cnccc12` [Example 40, 2-(3-fluorophenoxy)pyrido[3,4-d]pyrimidin-4-ol]: the concentration for half-maximal inhibition (IC50) was at most 100 nM.

As for `O=S(=O)(c1ccccc1)N1CCC(n2cc(Oc3nc(O)c4ccncc4n3)cn2)CC1` [Example 95, 2-[1-[1-(benzenesulfonyl)piperidin-4-yl]pyrazol-4-yl]oxypyrido[3,4-d]pyrimidin-4-ol], the IC50 was at most 100 nM.

The compound `CCCc1cccc(Oc2nc(O)c3ccncc3n2)c1` [Example 58, 2-(3-propylphenoxy)pyrido[3,4-d]pyrimidin-4-ol] displayed an IC50 of at most 100 nM.

`Cn1cnc(-c2nccc3c(O)nc(OCC(F)F)nc23)c1` [Example 77, 2-(2,2-difluoroethoxy)-8-(1-methylimidazol-4-yl)pyrido[3,4-d]pyrimidin-4-ol] returned a half-maximal inhibitory concentration (IC50) of at most 100 nM.

In turn, `Oc1nc(Oc2cccc(Cl)c2)nc2cnccc12` [Example 41, 2-(3-chlorophenoxy)pyrido[3,4-d]pyrimidin-4-ol] had a half-maximal inhibitory concentration (IC50) of at most 100 nM.

The compound `Oc1nc(Oc2ccc(F)c(F)c2)nc2cnccc12` [Example 37, 2-(3,4-difluorophenoxy)pyrido[3,4-d]pyrimidin-4-ol] showed an IC50 of at most 100 nM.

As for `COc1nc(O)c2ccnc(-c3cn(C)cn3)c2n1` [Example 68, 2-methoxy-8-(1-methyl-1H-imidazol-4-yl)pyrido[3,4-d]pyrimidin-4-ol], the IC50 is at most 100 nM.

For the compound `Oc1nc(Oc2cnn(C3CCNCC3)c2)nc2cnccc12` [Example 89, 2-(1-piperidin-4-ylpyrazol-4-yl)oxypyrido[3,4-d]pyrimidin-4-ol], the half-maximal inhibitory concentration (IC50) is at most 100 nM.

In turn, `COc1nc(O)c2ccncc2n1` [Example 8, 2-methoxypyrido[3,4-d]pyrimidin-4-ol] had a 50% inhibitory concentration (IC50) of at most 100 nM.

On to `Oc1nc(Oc2cccc(F)c2F)nc2cnccc12` [Example 42, 2-(2,3-difluorophenoxy)pyrido[3,4-d]pyrimidin-4-ol], for which the IC50 is at most 100 nM.

In the case of `Oc1nc(Oc2ccnc(N3CCNCC3)c2)nc2cnccc12` [Example 96, 2-(2-piperazin-1-ylpyridin-4-yl)oxypyrido[3,4-d]pyrimidin-4-ol], the IC50 was at most 100 nM.

As to `CC(C)(C)OC(=O)N1CCC(n2cc(Oc3nc(O)c4ccncc4n3)cn2)CC1` [Example 88, tert-butyl 4-[4-(4-hydroxypyrido[3,4-d]pyrimidin-2-yl)oxypyrazol-1-yl]piperidine-1-carboxylate], the IC50 is at most 100 nM.

`Cn1cnc(-c2nccc3c(O)nc(OCCCC(F)(F)F)nc23)c1` [Example 74, 8-(1-methylimidazol-4-yl)-2-(4,4,4-trifluorobutoxy)pyrido[3,4-d]pyrimidin-4-ol] registered a half-maximal inhibitory concentration (IC50) of at most 100 nM.
